# Active and inactive are the calls of the source. The calls are words filed in the database; no cut-off is given here.
# Experiments:
# [1] = Aqueous solubility of the compound; format: physicochemical
# [2] = molecular target: Heat shock protein HSP 90-alpha (Homo sapiens) (UniProt P07900); assay: Binding affinity to human HSP90alpha at < 10 uM
# Mus musculus [3] = assay: Toxicity in ICR-SCID mouse heart assessed as cholesterol level at 75 mg/kg administered 3 times per week for 4 weeks measured after 24 hrs of last dose relative to untreated control; format: organism-based; design: dose 75 mg/kg; details: in vivo
# Mus musculus [4] = assay: Hepatotoxicity in ICR-SCID mouse liver assessed as bilirubin level at 75 mg/kg administered 3 times per week for 4 weeks measured after 24 hrs of last dose relative to untreated control; format: toxicity, organism-based; design: dose 75 mg/kg; details: in vivo
# Mus musculus [5] = assay: Hepatotoxicity in ICR-SCID mouse liver assessed as alanine aminotransferase level at 75 mg/kg administered 3 times per week for 4 weeks measured after 24 hrs of last dose relative to untreated control; format: toxicity, organism-based; design: dose 75 mg/kg; details: in vivo
# MV4-11 = assay: Growth inhibition of human MV4-11 cells assessed as ATP level after 4 days; format: functional; details: MV4-11, 96 h
# Mus musculus [6] = assay: Hepatotoxicity in ICR-SCID mouse liver assessed as aspartate aminotransferase level at 75 mg/kg administered 3 times per week for 4 weeks measured after 24 hrs of last dose relative to untreated control; format: toxicity, organism-based; design: dose 75 mg/kg; details: in vivo
# Mus musculus [7] = assay: Hepatotoxicity in ICR-SCID mouse liver assessed as aspartate aminotransferase level at 50 mg/kg administered 3 times per week for 4 weeks measured after 24 hrs of last dose relative to untreated control; format: toxicity, organism-based; design: dose 50 mg/kg; details: in vivo
# Mus musculus [8] = assay: Toxicity in ICR-SCID mouse heart assessed as cholesterol level at 50 mg/kg administered 3 times per week for 4 weeks measured after 24 hrs of last dose relative to untreated control; format: organism-based; design: dose 50 mg/kg; details: in vivo
# Mus musculus [9] = assay: Hepatotoxicity in ICR-SCID mouse liver assessed as alkaline phosphatase level at 100 mg/kg administered 3 times per week for 4 weeks measured after 24 hrs of last dose relative to untreated control; format: toxicity, organism-based; design: dose 100 mg/kg; details: in vivo
# Mus musculus [10] = assay: Toxicity in ICR-SCID mouse kidney assessed as creatinine level at 75 mg/kg administered 3 times per week for 4 weeks measured after 24 hrs of last dose relative to untreated control; format: organism-based; design: dose 75 mg/kg; details: in vivo
# Mus musculus [11] = assay: Hepatotoxicity in ICR-SCID mouse liver assessed as aspartate aminotransferase level at 100 mg/kg administered 3 times per week for 4 weeks measured after 24 hrs of last dose relative to untreated control; format: toxicity, organism-based; design: dose 100 mg/kg; details: in vivo
# NCI-H1975 = assay: Growth inhibition of human tarceva and iressa-resistant NCI-H1975 cells assessed as ATP level after 4 days; format: functional; details: NCI-H1975, 96 h
# Mus musculus [12] = assay: Hepatotoxicity in ICR-SCID mouse liver assessed as alkaline phosphatase level at 50 mg/kg administered 3 times per week for 4 weeks measured after 24 hrs of last dose relative to untreated control; format: toxicity, organism-based; design: dose 50 mg/kg; details: in vivo
# Mus musculus [13] = assay: Hepatotoxicity in ICR-SCID mouse liver assessed as alanine aminotransferase level at 100 mg/kg administered 3 times per week for 4 weeks measured after 24 hrs of last dose relative to untreated control; format: toxicity, organism-based; design: dose 100 mg/kg; details: in vivo
# Mus musculus [14] = assay: Toxicity in ICR-SCID mouse kidney assessed as creatinine level at 50 mg/kg administered 3 times per week for 4 weeks measured after 24 hrs of last dose relative to untreated control; format: organism-based; design: dose 50 mg/kg; details: in vivo
# Mus musculus [15] = assay: Hepatotoxicity in ICR-SCID mouse liver assessed as bilirubin level at 100 mg/kg administered 3 times per week for 4 weeks measured after 24 hrs of last dose relative to untreated control; format: toxicity, organism-based; design: dose 100 mg/kg; details: in vivo
# Mus musculus [16] = assay: Hepatotoxicity in ICR-SCID mouse liver assessed as bilirubin level at 50 mg/kg administered 3 times per week for 4 weeks measured after 24 hrs of last dose relative to untreated control; format: toxicity, organism-based; design: dose 50 mg/kg; details: in vivo
# Mus musculus [17] = assay: Hepatotoxicity in ICR-SCID mouse liver assessed as alanine aminotransferase level at 50 mg/kg administered 3 times per week for 4 weeks measured after 24 hrs of last dose relative to untreated control; format: toxicity, organism-based; design: dose 50 mg/kg; details: in vivo
# Mus musculus [18] = assay: Toxicity in ICR-SCID mouse heart assessed as […] level at 50 mg/kg administered 3 times per week for 4 weeks measured after 24 hrs of last dose relative to untreated control; format: organism-based; design: dose 50 mg/kg; details: in vivo
# K562 = assay: Growth inhibition of human K562 cells assessed as ATP level after 4 days; format: functional; details: K562, 96 h
# BT-474 = assay: Growth inhibition of human BT474 cells assessed as ATP level after 4 days; format: functional; details: BT-474, 96 h
# MDA-MB-468 = assay: Growth inhibition of human MDA-MB-468 cells assessed as ATP level after 4 days; format: functional; details: MDA-MB-468, 96 h
# Mus musculus [19] = assay: Hepatotoxicity in ICR-SCID mouse liver assessed as alkaline phosphatase level at 75 mg/kg administered 3 times per week for 4 weeks measured after 24 hrs of last dose relative to untreated control; format: toxicity, organism-based; design: dose 75 mg/kg; details: in vivo
# [20] = Growth inhibition of human tarceva and iressa-resistant HCC827 cells assessed as ATP level after 4 days; format: functional; details: HCC827, 96 h
# Mus musculus [21] = assay: Toxicity in ICR-SCID mouse heart assessed as […] level at 75 mg/kg administered 3 times per week for 4 weeks measured after 24 hrs of last dose relative to untreated control; format: organism-based; design: dose 75 mg/kg; details: in vivo
# NCI-N87 = assay: Growth inhibition of human NCI-N87 cells assessed as ATP level after 4 days; format: functional; details: NCI-N87, 96 h
# PC-3 = assay: Growth inhibition of human PC3 cells assessed as ATP level after 4 days; format: functional, cell-based
# Homo sapiens = species: Homo sapiens; assay: Growth inhibition of human tarceva and iressa-resistant […] cells assessed as ATP level after 4 days; format: functional
# [22] = Growth inhibition of human MDA231 cells assessed as ATP level after 4 days; format: functional; details: MDA-MB-231, 96 h
# HCT-116 = assay: Growth inhibition of human HCT116 cells assessed as ATP level after 4 days; format: functional; details: HCT-116, 96 h
# NSCLC = assay: Growth inhibition of human NSCLC cells assessed as ATP level after 4 days; format: functional, cell-based
# [23] = molecular target: Heat shock protein HSP 90-alpha (Homo sapiens) (UniProt P07900)
# Liver = assay: Drug level in mouse liver at 30 mg/kg, po; format: ADME, organism-based; design: dose 30 mg/kg, route oral; details: in vivo
# [24] = Drug level in mouse liver at 4 mg/kg, iv; format: ADME, organism-based; design: dose 4 mg/kg, route intravenous
solubility [1],Activity [2],GI50 (MV4-11),GI50 (K562),GI50 (BT-474),GI50 (MDA-MB-468),GI50 [23],Compound,GI50 (NCI-N87),other results
≥ 80 mg/mL,inactive,–,–,–,–,–,C[C@@H]1C/C=C/CC/C=C/C(=N/OCC(=O)N2CCCCC2)Cc2cc(OP(=O)([O-])[O-])cc(O)c2C(=O)O1.[Na+].[Na+],–,–
–,–,11 nM,48 nM,5 nM,780 nM,–,C=CCNC1=C2C[C@@H](C)C[C@H](OC)[C@H](O)[C@@H](C)/C=C(\C)[C@H](OC(N)=O)[C@@H](OC)/C=C\C=C(/C)C(=O)NC(=CC1=O)C2=O (stereo in doubt) [TANESPIMYCIN],1 nM,Activity (Mus musculus [3]): 97.5 mg/dL; Activity (Mus musculus [4]): 0.25 mg/dL; Activity (Mus musculus [5]): 755.7 U/L; Activity (Mus musculus [6]): 1058.3 U/L; Activity (Mus musculus [7]): 216 U/L; Activity (Mus musculus [8]): 105.3 mg/dL; Activity (Mus musculus [9]): 131.3 U/L; Activity (Mus musculus [10]): 0.2 mg/dL; Activity (Mus musculus [11]): 10611.3 U/L; GI50 (NCI-H1975): 35 nM; Activity (Mus musculus [12]): 128.3 U/L; Activity (Mus musculus [13]): 11134 U/L; Activity (Mus musculus [14]): 0.2 mg/dL; Activity (Mus musculus [15]): 1.1 mg/dL; Activity (Mus musculus [16]): 0.2 mg/dL; Activity (Mus musculus [17]): 175.3 U/L; Activity (Mus musculus [18]): 64.7 U/L; Activity (Mus musculus [19]): 143.3 U/L; GI50 [20]: 56 nM; Activity (Mus musculus [21]): 166 U/L
–,–,2 nM,4 nM,2 nM,2 nM,15 nM,O=C1OCC/C=C/CC/C=C/C(=N/OCC(=O)N2CCCCC2)Cc2cc(O)cc(O)c21 [POCHOXIME B],1 nM,Activity (PC-3): Active; Activity (Homo sapiens): Active; GI50 [22]: 2 nM; GI50 (HCT-116): 11 nM; Activity (NSCLC): Active
–,–,3 nM,7 nM,6 nM,6 nM,18 nM,C[C@@H]1C/C=C/CC/C=C/C(=N/OCC(=O)N2CCCCC2)Cc2cc(O)cc(O)c2C(=O)O1 [POCHOXIME C],2 nM,Activity (PC-3): Active; Activity (Homo sapiens): Active; GI50 [22]: 6 nM; Activity (NSCLC): Active
≥ 80 mg/mL,inactive,–,–,–,–,–,O=C1OCC/C=C/CC/C=C/C(=N/OCC(=O)N2CCCCC2)Cc2cc(OCOP(=O)([O-])[O-])cc(O)c21.[Na+].[Na+],–,–
≥ 80 mg/mL,inactive,–,–,–,–,–,O=C1OCC/C=C/CC/C=C/C(=N/OCC(=O)N2CCCCC2)Cc2c(Cl)c(O)cc(OP(=O)([O-])[O-])c21.[Na+].[Na+],–,–
> 100 mg/mL,inactive,–,–,–,–,–,C[C@@H]1C/C=C/CC/C=C/C(=N/OCC(=O)N2CCCCC2)Cc2cc(OP(=O)([O-])[O-])cc(OP(=O)([O-])[O-])c2C(=O)O1.[Na+].[Na+].[Na+].[Na+],–,Drug uptake (Liver): 12469 ng/g; Cmax [24]: 3840 ng/g

Compound,solubility [1],Activity [2],GI50 (MV4-11),GI50 (K562),GI50 (BT-474),GI50 (MDA-MB-468),GI50 [23],GI50 (NCI-N87),other results
O=C1OCC/C=C/CC/C=C/C(=N/OCC(=O)N2CCCCC2)Cc2c(Cl)c(OP(=O)([O-])[O-])cc(O)c21.[Na+].[Na+],≥ 80 mg/mL,inactive,–,–,14 nM,37 nM,> 10000 nM,19 nM,–
O=C1OCC/C=C/CC/C=C/C(=N/OCC(=O)N2CCCCC2)Cc2cc(OP(=O)([O-])[O-])cc(O)c21.[Na+].[Na+],≥ 80 mg/mL,inactive,–,–,–,–,–,–,–

# Source: ChEMBL document CHEMBL1153018, “Synthesis of pochoxime prodrugs as potent HSP90 inhibitors” (Bioorg Med Chem Lett, 2009)
